Key:
human alpha-synuclein [1] = assay: Alpha-synuclein levels via ELISA in alpha-synuclein-transfected SHSY5Y cells; type: cell-based; details: 5 hours, concentration between 1 and 0.1 nM
Experimental: Cell lines, transfection, and treatment.
Alpha-Synuclein Enzyme-Linked Immunosorbent Assay (ELISA). ELISAs for total human alpha-synuclein (Millipore; Burlington, MA) were conducted using Milliplexed ELISA. Briefly, Xmap technology uses magnetic microspheres that are internally coded with two fluorescent dyes. Through precise combinations of these two dyes, multiple proteins are simultaneously measured within a sample. Each of these spheres is coated with a specific capture antibody. The capture antibody binds to the detection antibody and a reporter molecule, completing the reaction on the surface of the bead.
A total of 25 μL soluble protein was incubated overnight at 4° C. with 25 μL of a mixed bead solution. After washing, samples were incubated with 25 μL detection antibody solution for 1.5 hours at room temperature. Streptavidin-phycoerythrin (25 μL) was added to each well containing the 25 μL of detection antibody solution. Samples were then washed and suspended in 100 μL of sheath fluid. Samples were then run on MAGPIX with Xponent software. The median fluorescent intensity (MFI) data were analyzed using a 5-parameter logistic or spline curve-fitting method for calculating analyte concentrations in samples. Specific alpha-synuclein ELISAs were performed on tissue soluble extracts from midbrain lysates in 1XSTEN buffer. The ELISA for USP13 (MyBioSource, Cat # MBS9335287), Human alpha-synuclein (Biolegend, Cat #844101) and specific p-Tau ser396 (Invitrogen, KHB7031) were performed on cell or brain tissue extracts as described above according to manufacturers' protocol.

[2] = Pharmacokinetics in brain and serum of C57BL/6 mice (UHPLC-MS/MS); type: in vivo, mouse; details: 10 mg/kg I.P. single dose
Experimental: Pharmacokinetics Studies. […] Brain and serum samples were collected at 1, 2, 3, 4, 8 and 12 h (n=3 per time point). Animals injected with vehicle (DMSO) were used for background subtraction. Stock solution of the drug (1 mg/mL) and internal standards were prepared in methanol. Intermediate solutions used for the calibrators and control samples were serial-diluted in methanol/water (1:1). Preparation of the calibration curve standards and quality samples (QC) were performed by mixing the intermediate dilutions in blank samples (brain homogenates, serum). […] Serum and brain samples were stored at −80° C. and then thawed to room temperature prior to preparation. The brains were homogenized in MilliQ water (1 mg brain: 10 μL water). Proteins were precipitated in both brain and serum samples by mixing 25 μL aqueous sample with 75 μL internal standard working solution. The mixture was centrifuged at 12,300 g for 5 min. Thereafter, 75 μL of each supernatant and 25 μL of MilliQ water were pipetted into a 96-well PCR plate (Fisher Scientific, Dawsonville, GA,USA).
Briefly, the UHPLC-MS/MS system included an Elute HTG binary gradient UHPLC pump, an Elute column oven and an EVOQ Elite triple quadrupole mass spectrometer (all from Bruker Daltonik GmbH, Bremen, Germany) equipped with an electrospray ionization (ESI) source operating in a positive mode. The samples were injected by use of a PAL auto sampler (CTC Analytics, Zwingen, Switzerland) equipped with a 10-μL sample loop; the samples were kept in a PAL stack cooler for 6 microtiter plates and operating at +6° C. The system was controlled by a Compass 2.0/HyStar 4.0 software (Bruker); the compound screening and quantitation was performed by a TASQ 2.2 data acquisition and processing software (Bruker). The mass spectrometer was supplied by nitrogen and air generated by a Genius 3045 nitrogen/air generator (Peak Scientific Instruments, Inchinnan, Scotland, UK). The ESI parameters were as follows: probe gas flow 50, nebulizer gas flow 60, probe temperature +400° C., cone gas flow 20, cone temperature +350° C., CID gas Ar 1.5 mTorr. The mass spectra were scanned in the MRM mode to find the optimal collision energies for the test compounds and their respective precursor ions.
For chromatographic separation, an YMC-Ultra HT Hydrosphere C18 column (2.0×100 mm, 2 μm particle size) and an YMC-Hydrosphere 2.1×5 mm guard column (YMC Co. Ltd., Kyoto, Japan) were used. The mobile phase A was 10 mM ammonium formate, pH 4.3, in water; the mobile phase B was 10 mM ammonium formate, pH 4.3, in 10% water, 50% acetonitrile and 40% isopropyl alcohol. The mobile phase gradient was as follows (min—A/B%): 0 min—50/50, 0.5 min—50/50, 2.0 min—20/80, 3 min—20/80, 3.1 min—50/50, 4.5 min—50/50. The flow rate was 450 μL/min, and the column temperature was set at 50° C. The sample injection volume was 10 μL.

human alpha-synuclein [3] = assay: Alpha-synuclein levels in TgA53T mice (WB, ELISA, DAB staining); type: in vivo, mouse; details: 10 mg/kg or 40 mg/kg I.P. daily for 7 days, vs DMSO
[4] = system: tyrosine hydroxylase (TH); assay: Tyrosine hydroxylase staining in striatum of TgA53T mice; type: in vivo, mouse; details: 40 mg/Kg I.P. daily for 7 days, vs DMSO
Experimental: (§1) Immunohistology. Animals were deeply anesthetized with a mixture of xylazine and ketamine (1:8), washed with normal saline for 1 min and then perfused with 4% paraformaldehyde (PFA) for 15-20 min. Brains were quickly dissected out and immediately stored in 4% PFA for 24 h at 4° C. and then transferred to 30% sucrose at 4° C. for 48 h. Brains were cut using a cryostat microtome into 20 μm thick coronal sections and stored at −20° C.
Immunohistochemistry was performed on the 20 μm thick brain sections for evaluation of ubiquitination of alpha-synuclein. The antibodies used were human alpha-synuclein monoclonal antibody (Thermo Fisher, AHB0261, Rockford, IL, USA) and ubiquitin polyclonal antibody (Thermo Fisher, PA3-16717, Rockford, IL, USA). The optic densitometry of co-localization of ubiquitin with alpha-synuclein was measured using Image J. Tyrosine hydroxylase (TH) is the limiting enzyme in DA synthesis, so probing for TH+ neurons will help to evaluate the status of DA producing neurons in the SN and their terminals in the striatum. We performed fluorescent staining of TH+ in striatum and conducted optic densitometry measurement of striatal DA terminals. Nuclear staining with 4,6-diamidino-2-phenylindole was performed according to manufacturer's protocols (Life Technologies, Rockford, IL, USA).

Nissl+ cells = assay: Nissl staining neuron counts in TgA53T mice; type: in vivo, mouse; details: 40 mg/Kg I.P. daily for 7 days, vs DMSO
Experimental: as §1
Nissl and Silver Staining. Nissl staining was performed using FD Cresyl Violet Solution™ Regular Strength (FD NeuroTechnologies, Cat PS102-01) as per manufacturer's instructions. Silver staining was performed using FD NeuroSilver™ (FD NeuroTechnologies, Cat PK301,) as per manufacturer's instructions.

[5] = system: human SHSY5Y neuroblastoma cells; assay: Cell viability by MTT and LDH assays; details: 5 hours, up to 1 mM concentration
Experimental: Human SHSY-5Y neuroblastoma cells were cultured in Dulbecco's Modified Eagle's Medium (DMEM) (ThermoFisher Scientific; Waltham, MA) with 10% Fetal Bovine Serum (FBS) (ThermoFisher) and 1% Penicillin-Streptomycin (PenStrep, ThermoFisher) and incubated at 37° C. under atmospheric oxygen concentrations (21%) with 5% CO2. SHSY-5Y cells were cultured in DMEM with Ham's F12 (1:1) (ThermoFisher) with 20% FBS, 1% PenStrep. Cells were plated at a density tailored to reach 70-80% confluence at the beginning of every experiment. SH-SY5Y cells were transiently transfected for 24 hours with human wild-type α-synuclein using Fugene HD transfection reagent (Promega; Madison, WI) before fresh culture media and drug were added.
Cell viability was determined via lactate dehydrogenase assay on culture media, (ThermoFisher) and MTT assay on plated cells (ThermoFisher).

In the case of Fc1ccc2nccc(OCc3ccccc3)c2c1 [4-(Benzyloxy)-6-fluoroquinoline], the “level of alpha-synuclein via ELISA” value (human alpha-synuclein [1]) is reported as “significantly reduce the level of alpha-synuclein”, the Brain/serum ratio ([2]; 10 mg/kg) is reported as 28.0% and the AUC ([2]; brain) is reported as 0.1643 µM·h. The “T1/2 (elimination)” value ([2]; brain) was 2.32 h, the AUC ([2]; serum) was 0.5994 µM·h and the “T1/2 (elimination)” value ([2]; serum) was 1.84 h. For the same molecule, the Tmax ([2]; serum) was 1 h, the “human alpha-synuclein in midbrain lysates by WB” value (human alpha-synuclein [3]) was “significantly reduced” and the “staining of tyrosine hydroxylase (TH)” value [4] was “did not show any noticeable effects”. For the same molecule, the “neuron counts (Nissl+ cells)” value (Nissl+ cells; cortex) was “significantly increased neuron counts”, the “neuron counts (Nissl+ cells)” value (Nissl+ cells; striatum) was “significantly increased neuron counts” and the “neuron counts (Nissl+ cells)” value (Nissl+ cells; substantia nigra (SN)) was “significantly increased neuron counts”. For the same molecule, the “cell death in two viability assays (MTT and LDH)” value [5] was “do not cause cell death”.

From patent publication US20240092800A1, “USP13 INHIBITORS AND METHODS OF USE THEREOF” (GEORGETOWN UNIVERSITY, priority 2021, published 2024)
